Data on 71 compounds can be found in patent US6500842B1, “8-hydroxy-7-substituted quinolines as anti-viral agents” (Pharmacia & Upjohn Company, priority 1996, dated 2002).

Several values for one entry are separate records, joined by “and”; a condition that tells them apart may be missing. Identical values can stand only once. Bounds are passed on as bounds.

As a reminder, the IC50 is the point on the concentration scale where inhibition reaches its midpoint. The term inhibition denotes the percentage by which the read-out fell short of the control. Higher therefore signals strong suppression.

T1 sequence (P08546 whole entry): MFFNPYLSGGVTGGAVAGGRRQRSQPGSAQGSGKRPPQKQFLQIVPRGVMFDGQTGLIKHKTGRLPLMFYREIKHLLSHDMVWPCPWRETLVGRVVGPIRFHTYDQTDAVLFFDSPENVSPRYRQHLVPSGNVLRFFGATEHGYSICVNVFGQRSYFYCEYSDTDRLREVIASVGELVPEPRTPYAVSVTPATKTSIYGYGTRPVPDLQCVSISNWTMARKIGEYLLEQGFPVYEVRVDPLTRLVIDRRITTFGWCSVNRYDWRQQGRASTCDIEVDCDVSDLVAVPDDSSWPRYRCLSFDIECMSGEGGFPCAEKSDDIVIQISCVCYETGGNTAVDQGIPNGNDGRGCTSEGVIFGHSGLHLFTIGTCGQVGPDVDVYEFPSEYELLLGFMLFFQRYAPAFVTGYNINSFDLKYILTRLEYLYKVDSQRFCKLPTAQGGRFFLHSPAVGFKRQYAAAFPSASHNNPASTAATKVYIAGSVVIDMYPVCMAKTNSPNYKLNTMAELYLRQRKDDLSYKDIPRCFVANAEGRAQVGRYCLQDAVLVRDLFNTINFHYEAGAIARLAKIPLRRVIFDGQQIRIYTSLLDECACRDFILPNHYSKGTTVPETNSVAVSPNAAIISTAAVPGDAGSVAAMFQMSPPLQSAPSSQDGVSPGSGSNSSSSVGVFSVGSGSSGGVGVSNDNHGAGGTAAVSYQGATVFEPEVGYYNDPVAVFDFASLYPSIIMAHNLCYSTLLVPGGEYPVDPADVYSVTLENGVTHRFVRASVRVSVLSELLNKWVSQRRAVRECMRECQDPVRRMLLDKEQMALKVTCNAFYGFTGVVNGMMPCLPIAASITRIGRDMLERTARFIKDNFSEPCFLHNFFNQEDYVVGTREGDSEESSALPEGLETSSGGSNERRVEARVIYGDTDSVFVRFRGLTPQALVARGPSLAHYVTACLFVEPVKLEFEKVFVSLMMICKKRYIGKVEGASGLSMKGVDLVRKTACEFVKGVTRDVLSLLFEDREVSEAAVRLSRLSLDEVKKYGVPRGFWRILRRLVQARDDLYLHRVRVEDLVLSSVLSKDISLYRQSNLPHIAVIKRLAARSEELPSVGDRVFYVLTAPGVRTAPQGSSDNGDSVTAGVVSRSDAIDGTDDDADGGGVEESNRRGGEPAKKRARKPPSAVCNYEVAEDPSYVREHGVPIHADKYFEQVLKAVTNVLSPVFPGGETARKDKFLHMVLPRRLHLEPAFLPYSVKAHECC

The first experiment concerns the target T1, HCMV polymerase (Human cytomegalovirus, UniProt P08546).
T1 construct: made in house; host or cells: recombinant baculovirus-infected SF-9 cells
The experiment is described as follows: HCMV polymerase assay (scintillation proximity assay). It counts as biochemical. To be noted: Table 5; pol type CMV; read-out: IC50. The method, then: The HCMV polymerase assay is performed using a scintillation proximity assay (SPA) as described in several references, such as N. D. Cook, et al., Pharmaceutical Manufacturing International, pages 49-53 (1992); K. Takeuchi, Laboratory Practice, September issue (1992); U.S. Pat. No. 4,568,649 (1986); which are incorporated by reference herein. Reactions are performed in 96-well plates. The assay is conducted in 100 μl volume with 5.4 mM HEPES (pH 7.5), 11.7 mM KCl, 4.5 mM MgCl2, 0.36 mg/ml BSA, and 90 nM ^3H-dTTP. Assays are run with and without CHAPS, (3-[(3-Cholamidopropyl)-dimethylammonio]-1-propane-sulfonate) at a final concentration of 2 mM. HCMV is diluted in enzyme dilution buffer containing 50% glycerol, 250 mM NaCl, 10 mM HEPES (pH 7.5), 100 pg/ml BSA, and 0.01% sodium azide. The HCMV polymerase, which is expressed in recombinant baculovirus-infected SF-9 cells and purified according to literature procedures, is added at 10% (or 10 μl) of the final reaction volume, i.e., 100 μl. Compounds are diluted in 50% DMSO and 10 μl are added to each well. Control wells contain an equivalent concentration of DMSO. Unless noted otherwise, reactions are initiated via the addition of 6 nM biotinylated poly(dA)-oligo(dT) template/primer to reaction mixtures containing the enzyme, substrate, and compounds of interest. Plates are incubated in a 25° C. of 37° C. H2O bath and terminated via the addition of 40 μl/reaction of 0.5 M EDTA (pH 8) per well. Reactions are terminated within the time-frame during which substrate incorporation is linear and varied depending upon the enzyme and conditions used, i.e., 30 min. for HCMV polymerase. Ten μl of streptavidin-SPA beads (20 mg/ml in PBS/10% glycerol) are added following termination of the reaction. Plates are incubated 10 min. at 37° C., then equilibrated to room temperature, and counted on a Packard Topcount. Linear regressions are performed and IC50's are calculated using computer software. Results of the testing of compounds of the present invention in this assay are shown in Tables 1, 2, 5, 9, 10, 11, 13 (except for the last compound which was tested under modified conditions) and 14 below.
Take `O=C(NCc1ccc(Cl)cc1)c1ccc2ccc(/C=C/c3ccco3)nc2c1O` [Example 57, N-[(4-Chlorophenyl)methyl]-2-[2-(2-furyl)ethenyl]-8-hydroxy-7-quinolinecarboxamide]: the IC50 came to 8 µM.
Same read-out and setting: in the case of `CCCCCCCNC(=O)c1ccc2ccc(/C=C/c3ccccc3)nc2c1O` [Example 49, N-Heptyl-8-hydroxy-2-(2-phenylethenyl)-7-quinolinecarboxamide] it was < 3.1 µM and 0.6 µM.

The same experiment, now with this note: Table 9; read-out: CMV pol Assay- IC50.
With `O=C(NCc1ccc(F)c(Cl)c1)c1ccc2cccnc2c1O`, the IC50 was found to be 17.5 µM.
Still for that read-out and setting: in the case of `CCCCCCCCCCNC(=O)c1ccc2cccnc2c1O` it was 7.1 µM; in that of `CCCCC(CC)CNC(=O)c1ccc2cccnc2c1O` (centres unmarked), 3.2 µM.
Still for that read-out and setting: the value for `CC1CCC(NC(=O)c2ccc3cccnc3c2O)CC1` (centres unmarked) was 23.3 µM; that for `O=C(NCCc1ccc(O)cc1)c1ccc2cccnc2c1O` was 20.1 µM.
On the same count and under the same terms, the value for `O=C(NCCSc1cc(C(F)(F)F)nc2ccccc12)c1ccc2cccnc2c1O` was 12.6 µM; that for `COC(=O)[C@H](Cc1ccc([N+](=O)[O-])cc1)NC(=O)c1ccc2cccnc2c1O` was 10.8 µM; that for `O=C(NCc1ccc(Cl)cc1)c1ccc2cccnc2c1O` [drawing 169] was 8.1 µM.
As to `O=C(NCc1c(Cl)cccc1Oc1ccccc1)c1ccc2cccnc2c1O`, the IC50 stood at 3.1 µM.
Same read-out and setting: in the case of `O=C(NCc1ccccc1Cl)c1ccc2cccnc2c1O` it was 19.7 µM; in that of `CCOC(=O)C(Cc1c[nH]c2ccccc12)NC(=O)c1ccc2cccnc2c1O` (centres unmarked), 24.6 µM and 29.4 µM; in that of `Cc1ccc(CCNC(=O)c2ccc3cccnc3c2O)cc1`, 16.8 µM.
On the same count and under the same terms, the value for `O=C(NCC(c1ccccc1)c1ccccc1)c1ccc2cccnc2c1O` was 0.9 µM.
In the case of `O=C(NCCc1ccc(Cl)cc1Cl)c1ccc2cccnc2c1O`, the IC50 was 9 µM.
For the compound `O=C(NC1CCCCCC1)c1ccc2cccnc2c1O`, the IC50 amounted to 23.8 µM.
Regarding `CC(CNC(=O)c1ccc2cccnc2c1O)c1ccccc1` (centres unmarked), the IC50 came out at 14.8 µM.
On to `O=C(NCC(O)c1ccccc1)c1ccc2cccnc2c1O` (centres unmarked), for which the IC50 is 7.8 µM.
On the same count and under the same terms, the value for `CCCCCCCNC(=O)c1ccc2cccnc2c1O` was 5.2 µM; that for `O=C(NCc1ccc(Cl)c(Cl)c1)c1ccc2cccnc2c1O` was 5.6 µM.
On the same count and under the same terms, in the case of `C[C@@H](NC(=O)c1ccc2cccnc2c1O)c1ccccc1` it was 24.5 µM; in that of `COC(=O)C(Cc1ccc(O)cc1)NC(=O)c1ccc2cccnc2c1O` (centres unmarked), 12.1 µM.
The same measure, in the same setting: in the case of `O=C(N[C@@H]1CC2CCC1C2)c1ccc2cccnc2c1O` (some centres unmarked) it was 19.2 µM; in that of `O=C(NCCC1=CCCCC1)c1ccc2cccnc2c1O`, 21.1 µM.
Consider `O=C(NCCc1c[nH]c2ccccc12)c1ccc2cccnc2c1O`, for which the IC50 turned out to be 11.1 µM.
The same measure, in the same setting: in the case of `O=C(NCc1cc(F)ccc1F)c1ccc2cccnc2c1O` it was 22.3 µM; in that of `O=C(NCc1cc(Cl)ccc1Cl)c1ccc2cccnc2c1O`, 17 µM; in that of `O=C(NC1CCc2ccccc21)c1ccc2cccnc2c1O` (centres unmarked), 13.2 µM.
Same read-out and setting: in the case of `O=C(NCCc1cccc(Cl)c1)c1ccc2cccnc2c1O` it was 6.9 µM; in that of `CC(C)(C)C1CCC(NC(=O)c2ccc3cccnc3c2O)CC1` (centres unmarked), 2.3 µM.
The same measure, in the same setting: the value for `CCCCCCCCCNC(=O)c1ccc2cccnc2c1O` was 2.2 µM; that for `COc1cc(CNC(=O)c2ccc3cccnc3c2O)ccc1O` was 19.3 µM.

The same experiment, now with this note: Table 10; CMV pol Assay; read-out: IC50.
Regarding `O=C(Nc1cc(C(F)(F)F)cc(C(F)(F)F)c1)c1ccc2cccnc2c1O`, the IC50 was 68.2 µM.
With `Cc1cc(C)cc(NC(=O)c2ccc3cccnc3c2O)c1`, the IC50 was 19.2 µM.
On the same count and under the same terms, in the case of `O=C(Nc1ccc(Br)cn1)c1ccc2cccnc2c1O` it was 21.6 µM; in that of `N#Cc1c(F)c(F)c(NC(=O)c2ccc3cccnc3c2O)c(F)c1F`, 18.5 µM.
Same read-out and setting: the value for `O=C(Nc1cc(Br)ccc1Br)c1ccc2cccnc2c1O` was 10.1 µM; that for `CCCc1ccc(NC(=O)c2ccc3cccnc3c2O)cc1` was 3.1 µM; that for `CSc1cccc(NC(=O)c2ccc3cccnc3c2O)c1` was 25.5 µM.
Still for that read-out and setting: the value for `O=C(Nc1ccccc1F)c1ccc2cccnc2c1O` was 27.3 µM.
Take `O=C(Nc1ccc(F)cc1F)c1ccc2cccnc2c1O`: the IC50 was 26.8 µM.
In the case of `CSc1ccccc1NC(=O)c1ccc2cccnc2c1O`, the IC50 turned out to be 8.2 µM.
The same measure, in the same setting: in the case of `O=C(Nc1ccc(Oc2ccc([N+](=O)[O-])cc2)cc1)c1ccc2cccnc2c1O` it was 3.9 µM.
Still for that read-out and setting: in the case of `O=C(Nc1ccc(Br)cc1F)c1ccc2cccnc2c1O` it was 6.9 µM.
The same measure, in the same setting: the value for `O=C(Nc1cccc(I)c1)c1ccc2cccnc2c1O` was 5.9 µM.
As to `O=C(Nc1ccc(CO)cc1)c1ccc2cccnc2c1O`, the IC50 stood at 3.7 µM.
On the same count and under the same terms, in the case of `O=C(Nc1ccc([N+](=O)[O-])cc1Cl)c1ccc2cccnc2c1O` it was 3.3 µM; in that of `O=C(Nc1ccc(Oc2ccccc2)cc1)c1ccc2cccnc2c1O`, 6.9 µM; in that of `O=C(Nc1cccc(F)c1)c1ccc2cccnc2c1O`, 16.9 µM.
Still for that read-out and setting: the value for `Cc1cccc(NC(=O)c2ccc3cccnc3c2O)c1` [drawing 284] was 7 µM.
The same measure, in the same setting: in the case of `O=C(Nc1ccc2[nH]ccc2c1)c1ccc2cccnc2c1O` it was 13.6 µM; in that of `COc1ccc(NC(=O)c2ccc3cccnc3c2O)cc1`, 30.1 µM.

Staying with this experiment, now noted: Table 11; read-out: CMV pol Assay IC50.
Turning to `CC(C)(C)OC(=O)C[C@H](Nc1nnc(NC(=O)c2ccc3cccnc3c2O)s1)C(=O)OC(C)(C)C`, the IC50 stood at 24.2 µM.
On the same count and under the same terms, the value for `O=C(Nc1nnc(NC(C(=O)O)c2ccc3c(c2)OCO3)s1)c1ccc2cccnc2c1O` (centres unmarked) was 22.6 µM; that for `CC(C)(C)OC(=O)[C@H](CCCCNC(=O)OCc1ccccc1)Nc1nnc(NC(=O)c2ccc3cccnc3c2O)s1` was less than 3.1 µM; that for `O=C(Nc1nnc(NCc2ccc3c(c2)OCO3)s1)c1ccc2cccnc2c1O` was 7.1 µM.
As to `O=C(Nc1nnc(NCCc2ccccc2)s1)c1ccc2cccnc2c1O`, the IC50 came to 2.4 µM.

The experiment is the same for the next values; noted with them: Table 13; 100 μM.
As for `Cc1cc(C(F)(F)F)nc2c(O)c(C(=O)NCc3ccc(Cl)cc3)ccc12`, the inhibition at 100 µM stood at 35%.

The same experiment, now with this note: Table 13; read-out: IC50.
For `O=C(NCc1ccc(Cl)cc1)c1cc([N+](=O)[O-])c2cccnc2c1O`, the IC50 is 2.6 µM.
Still for that read-out and setting: the value for `O=C(NC1=NC(=O)C(c2cccc([N+](=O)[O-])c2)S1)c1ccc2cccnc2c1O` (centres unmarked) was 5.2 µM.

The experiment is the same for the next values; noted with them: Table 14; read-out: IC50.
On to `O=C(NCc1ccc(F)cc1Cl)c1ccc2cccnc2c1O`, for which the IC50 stood at 28 µM.
Still for that read-out and setting: in the case of `CC[C@H](C)C(CO)NC(=O)c1ccc2cccnc2c1O` (some centres unmarked) it was 26 µM; in that of `O=C(NCCOc1ccccc1)c1ccc2cccnc2c1O`, 29 µM; in that of `O=C(NCc1ccc2c(c1)OCO2)c1ccc2cccnc2c1O`, 26 µM.
Still for that read-out and setting: in the case of `O=C(NCc1ccc(F)c(F)c1)c1ccc2cccnc2c1O` it was 42 µM; in that of `O=C(NCCc1ccccc1Cl)c1ccc2cccnc2c1O`, 26 µM.
The same measure, in the same setting: in the case of `O=C(N[C@@H](CO)c1ccccc1)c1ccc2cccnc2c1O` it was 19 µM.
Take `CCCCCCNC(=O)c1ccc2cccnc2c1O`: the IC50 turned out to be 27 µM.
The same measure, in the same setting: in the case of `O=C(NCc1cccs1)c1ccc2cccnc2c1O` it was 34 µM; in that of `C[C@H](NC(=O)c1ccc2cccnc2c1O)[C@H](O)c1ccccc1`, 41 µM.
